The term inhibition denotes the drop in the measured response relative to a control, in per cent.

In the experiment the target is T1, IKBKB (IKK beta) (Homo sapiens, UniProt O14920).
T1 construct: purchased Thermo Fisher Scientific (Life Technologies) SelectScreen
Kind of experiment: SelectScreen Z'LYTE. The experiment is classed as biochemical. The essentials:
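SelectScreen broad panel; activity (Z'LYTE, Adapta) plus binding formats. ATP: Km app for CSF1R Z'LYTE; 10 for CAMK1 Adapta. Readout = % per kinase.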

T1 sequence (O14920 whole entry): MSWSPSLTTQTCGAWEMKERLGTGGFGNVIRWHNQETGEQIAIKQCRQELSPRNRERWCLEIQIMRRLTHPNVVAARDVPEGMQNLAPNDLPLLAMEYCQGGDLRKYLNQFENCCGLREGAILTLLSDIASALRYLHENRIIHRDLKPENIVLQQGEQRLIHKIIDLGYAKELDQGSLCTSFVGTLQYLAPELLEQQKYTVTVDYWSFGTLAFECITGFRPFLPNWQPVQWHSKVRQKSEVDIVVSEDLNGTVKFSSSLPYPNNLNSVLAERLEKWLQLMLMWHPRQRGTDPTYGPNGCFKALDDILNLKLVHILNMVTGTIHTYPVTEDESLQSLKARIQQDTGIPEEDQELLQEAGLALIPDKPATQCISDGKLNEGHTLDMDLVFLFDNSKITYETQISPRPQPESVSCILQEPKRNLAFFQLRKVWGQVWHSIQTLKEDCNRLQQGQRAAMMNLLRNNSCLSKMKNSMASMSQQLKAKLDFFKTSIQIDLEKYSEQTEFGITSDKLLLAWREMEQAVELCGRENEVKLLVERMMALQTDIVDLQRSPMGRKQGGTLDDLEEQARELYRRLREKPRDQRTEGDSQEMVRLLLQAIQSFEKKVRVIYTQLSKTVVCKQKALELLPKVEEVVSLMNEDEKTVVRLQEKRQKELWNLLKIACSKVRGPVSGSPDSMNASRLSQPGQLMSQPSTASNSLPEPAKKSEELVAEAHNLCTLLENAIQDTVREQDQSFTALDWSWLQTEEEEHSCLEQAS

Turning to `CN(C(=O)CN1CCOCC1)c1ccc2sc3c(-c4cccc5c(=O)cc(N6CC7CCC(C6)O7)oc45)cccc3c2c1` [NU5455], the inhibition at 1 µM was -0.6%.

These data come from PMC6934184, “Selective DNA-PKcs inhibition extends the therapeutic index of localized radiotherapy and chemotherapy” (The Journal of Clinical Investigation, 2019).
